Data reported in article PMC6613765 (Journal of Virology, 2019).
Counter-ions that a name gives are not always drawn. Like-named read-outs stand apart in the source and are kept apart here.

How the values were obtained:
HCoV-NL63 [1] = assay: microbe, parasite or virus in culture; settings: Human coronavirus NL63, LLC-MK2, 72 h, read-out: HCoV-NL63 EC50
in vitro = settings: mouse
MHV-A59 [2] = assay: microbe, parasite or virus in culture; settings: Murine coronavirus, 72 h, read-out: MHV-A59 EC50
HCoV-OC43-WT [3] = system: HCoV-OC43-WT; set-up: species or system BALB/c mice
HCoV-OC43-WT [4] = settings: for EC50: read-out: HCoV-OC43 EC50
MERS-CoV [5] = settings: for EC50: read-out: MERS-CoV EC50
MHV-A59 [6] = settings: for EC50: read-out: MHV-A59 EC50
HCoV-NL63 [7] = settings: for EC50: read-out: HCoV-NL63 EC50
[8] = system: four CoVs (HCoV-OC43, HCoV-NL63, MERS-CoV, MHV-A59); assay: organism not typed; format: cell-based; settings: read-out: EC50 values against all CoVs
[9] = system: pseudotyped MERS-CoV (HIV-1 backbone, spike protein of MERS-CoV); format: cell-based
SARS-CoV [10] = settings: cited from earlier work
MERS-CoV [11] = settings: cited from earlier work
SARS-CoV [12] = settings: mouse, in vivo; cited from earlier work
rOC43-ns2Del-Rluc = format: in vivo, BALB/c mice
HCoV-229E = settings: read-out: EC50, HCoV-229E; CoV-infected human primary cells; cited from earlier work
MERS-CoV [13] = settings: read-out: EC50, MERS-CoV; cited from earlier work

| Compound | EC50 (HCoV-NL63 [1]) | CC50 (in vitro) | EC50 (MHV-A59 [2]) | further results |
| --- | --- | --- | --- | --- |
| O=C(/C=C/c1ccccc1)c1ccc(O)cc1 [4'-Hydroxychalcone] | 7.25 µM | > 20 µM | 9.75 µM |  |
| C=CCc1ccccc1OCC(O)CNC(C)C (stereo not shown) [Alprenolol] | 11.9 µM | > 20 µM | 14 µM |  |
| CCCCCC[C@H]1C(=O)O[C@H](C)[C@H](NC(=O)c2cccc(NC=O)c2O)C(=O)O[C@@H](C)[C@@H]1OC(=O)CC(C)C [Antimycin A] | 6.05 µM | 3.98 µM | 5.42 µM |  |
| COc1cc2c3cc1Oc1c(OC)c(OC)cc4c1[C@@H](Cc1ccc(O)c(c1)Oc1ccc(cc1)C[C@@H]3N(C)CC2)N(C)CC4 [Berbamine] | 9.46 µM | > 20 µM | 10.9 µM |  |
| CN(C)CCN(Cc1ccc(Cl)cc1)c1ccccn1 [Chloropyramine] | 14.2 µM | > 20 µM | 2.42 µM |  |
| CCN(CC)CCCC(C)Nc1ccnc2cc(Cl)ccc12 (stereo not shown) [Chloroquine] | 4.89 µM | > 20 µM | 15.9 µM | antiviral activity in vivo, positive control (HCoV-OC43-WT [3]; mouse): showed antiviral activity |
| C[C@H]1[C@H]2CC[C@H]3[C@@H]4CC=C5C[C@@H](N(C)C)CC[C@]5(C)[C@H]4CC[C@]23CN1C [Conessine] | 10.8 µM | > 20 µM | 11.5 µM |  |
| C[C@@H]1C[C@@H]([C@H](O)CC2CC(=O)NC(=O)C2)C(=O)[C@@H](C)C1 [Cycloheximide] | 2.64 µM | 3.19 µM | 5.21 µM |  |
| CNCCCN1c2ccccc2CCc2ccccc21 [Desipramine] | 6.68 µM | > 20 µM | 8.75 µM |  |
| CC(=O)Oc1cc2c(c(C)c1OC(C)=O)CC=C1[C@@]2(C)CC[C@@]2(C)C3C[C@](C)(C(=O)O)CC[C@]3(C)CC[C@]12C (stereo partly shown) [Dihydrocelastryl diacetate] |  |  |  | EC50 (HCoV-OC43-WT [4]): 1.71 µM; CC50 (BHK-21 cells): > 20 µM; EC50 (MERS-CoV [5]): 10.6 µM; CC50 (Vero E6 cells): > 20 µM; EC50 (MHV-A59 [6]): 4.24 µM; CC50 (LLC-MK2 cells): > 20 µM; EC50 (HCoV-NL63 [7]): 0.65 µM; CC50 (DBT cells): > 20 µM |
| O=C(Nc1ccccc1)OCC(CN1CCCCC1)OC(=O)Nc1ccccc1 (stereo not shown) [Diperodon] | 4.91 µM | 14.5 µM | 1.98 µM |  |
| COc1cc2nc(N3CCN(C(=O)C4COc5ccccc5O4)CC3)nc(N)c2cc1OC (stereo not shown) [Doxazosin mesylate] | 14 µM | > 20 µM | 14.5 µM |  |
| CC[C@H]1CN2CCc3cc(OC)c(OC)cc3[C@@H]2C[C@@H]1C[C@H]1NCCc2cc(OC)c(OC)cc21 [Emetine] | 1.43 µM | 3.51 µM | 0.12 µM | EC50 [8]: < 5 µM; CC50 (BHK-21 cells; hamster): 2.69 µM; SI (CC50/EC50), MERS-CoV (MERS-CoV [5]): 9.06; CC50 (LLC-MK2 cells; rhesus monkey): 3.63 µM; luciferase activity reduced compared with control [9]: 50 fold |
| CCCCCCOc1ccccc1C(N)=O [Exalamide] | 17.5 µM | > 20 µM | 16.4 µM |  |
| CCC(CC)COC(=O)[C@H](C)N[P@](=O)(OC[C@H]1O[C@@](C#N)(c2ccc3c(N)ncnn23)[C@H](O)[C@@H]1O)Oc1ccccc1 [GS-5734] |  |  |  | IC50, SARS-CoV replication (SARS-CoV [10]): submicromolar; IC50, MERS-CoV replication (MERS-CoV [11]): submicromolar; lung viral load (SARS-CoV [12]): significantly reduced the lung viral load |
| COc1ccc2c(c1)[nH]c1c(C)nccc12 [Harmine] | 13.5 µM | > 20 µM | 13.8 µM |  |
| CCN(CC)CCNc1ccc(CO)c2sc3ccccc3c(=O)c12 [Hycanthone] | 5.76 µM | 4.19 µM | 5.78 µM |  |

| Compound | EC50 (HCoV-NL63 [1]) | CC50 (in vitro) | EC50 (MHV-A59 [2]) | further results |
| --- | --- | --- | --- | --- |
| O[C@H]1[C@H]2c3cc4c(cc3CN3CCC(=C[C@@H]1O)[C@H]23)OCO4 [Lycorine] | 0.47 µM | 3.51 µM | 0.31 µM | SI (CC50/EC50), HCoV-OC43 (HCoV-OC43-WT [4]): 29.13; CC50 (BHK-21 cells; hamster): 4.37 µM; HCoV-OC43 nucleocapsid protein in mouse brain coronal sections (IHC) (HCoV-OC43-WT [3]; in vivo): present only in the PBS-DMSO-treated group, not in the lycorine-treated group; viral loads in the brain and spinal cord (HCoV-OC43-WT [3]; mouse, in vivo): under the limit of detection; bioluminescence signal in the brain (rOC43-ns2Del-Rluc; 15 mg/kg daily, 2, 3 and 4 days postinoculation): no signal was detected; Rluc activity in PBS-DMSO-treated mice relative to treated mice (rOC43-ns2Del-Rluc; mouse brain, 72 h postinoculation, 15 mg/kg): ~2 × 10^5 fold; CC50 (LLC-MK2 cells; rhesus monkey): 3.81 µM |
| COc1c(C)c2c(c(O)c1C/C=C(\C)CCC(=O)OCCN1CCOCC1)C(=O)OC2 [Mycophenolate mofetil] | 0.23 µM | 3.33 µM | 0.27 µM | EC50 [8]: < 5 µM; CC50 (BHK-21 cells; hamster): 3.43 µM; CC50 (LLC-MK2 cells; rhesus monkey): 3.01 µM |
| COc1c(C)c2c(c(O)c1C/C=C(\C)CCC(=O)O)C(=O)OC2 [Mycophenolic acid] | 0.18 µM | 4.18 µM | 0.17 µM | EC50 [8]: < 5 µM; CC50 (BHK-21 cells; hamster): 3.55 µM; CC50 (LLC-MK2 cells; rhesus monkey): 3.44 µM; SI (CC50/EC50), HCoV-NL63 (HCoV-NL63 [7]): 19.11 |
| CC[C@H]1/C=C/C=C/C[C@@H](C)[C@H](O)[C@@](C)(O)C(=O)[C@@H](C)[C@H](O)[C@@H](C)C(=O)[C@@H](C)[C@H](O)[C@@H](C)/C=C/C(=O)O[C@@H]2[C@H](C)[C@H](CC1)O[C@]1(CC[C@H](C)[C@H](C[C@@H](C)O)O1)[C@H]2C [Oligomycin] | 2.63 µM | 6.78 µM | 6.43 µM |  |
| COc1ccc(Cc2nccc3cc(OC)c(OC)cc23)cc1OC [Papaverine] | 7.32 µM | 12.4 µM | 11.5 µM |  |
| Nc1ccc(/N=N/c2ccccc2)c(N)n1 [Phenazopyridine] | 2.02 µM | > 20 µM | 0.77 µM | EC50 [8]: < 5 µM; CC50 (BHK-21 cells; hamster): > 20 µM; SI (CC50/EC50), MHV-A59 (MHV-A59 [6]): > 25.97; CC50 (LLC-MK2 cells; rhesus monkey): > 20 µM |
| CC(=O)[O][Hg][c]1ccccc1 [Phenylmercuric acetate] |  |  |  | EC50 (HCoV-OC43-WT [4]): 2.17 µM; CC50 (BHK-21 cells): 5.35 µM; EC50 (MERS-CoV [5]): 6.44 µM; CC50 (Vero E6 cells): 5.39 µM; EC50 (MHV-A59 [6]): 6.81 µM; CC50 (LLC-MK2 cells): 5.47 µM; EC50 (HCoV-NL63 [7]): 6.79 µM; CC50 (DBT cells): 5.97 µM |
| COC(=O)[C@]1(C)CC[C@]2(C)CC[C@]3(C)C4=CC=C5C(=CC(=O)C(O)=C5C)[C@]4(C)CC[C@@]3(C)[C@@H]2C1 [Pristimerin] | 1.63 µM | > 20 µM | 9.17 µM |  |
| CN(C)CCCN1c2ccccc2Sc2ccccc21 [Promazine] | 1.37 µM | > 20 µM | 0.51 µM |  |
| Cc1cc(/C=C/c2ccc3cc(N(C)C)ccc3[n+]2C)c(C)n1-c1ccccc1 [Pyrvinium pamoate] | 3.35 µM |  |  | EC50 [8]: < 5 µM |
| CC[C@@H](C(=O)[C@@H](C)[C@@H](O)[C@H](C)[C@@H]1O[C@@H]([C@@H](CC)C(=O)O)CC[C@@H]1C)[C@H]1O[C@]2(C=C[C@@H](O)[C@]3(CC[C@@](C)([C@H]4CC[C@](O)(CC)[C@H](C)O4)O3)O2)[C@H](C)C[C@@H]1C [Salinomycin sodium] | 5.71 µM | 2.45 µM | 5.16 µM |  |
| COc1ccc2cc1Oc1ccc(cc1)C[C@H]1c3cc(c(OC)cc3CCN1C)Oc1c(OC)c(OC)cc3c1[C@H](C2)N(C)CC3 [Tetrandrine] | 2.05 µM | > 20 µM | 4.81 µM |  |
| Clc1ccccc1CN1CCc2sccc2C1 [Ticlopidine] | 15.7 µM | > 20 µM | 14.3 µM |  |
| CCN(CC)CCOc1ccc2c(c1)C(=O)c1cc(OCCN(CC)CC)ccc1-2 [Tilorone] | 6.89 µM | > 20 µM | 16.1 µM |  |
| CC(C)[C@@H]1NC(=O)[C@H](C)OC(=O)[C@@H](C(C)C)NC(=O)[C@@H](C(C)C)OC(=O)[C@H](C(C)C)NC(=O)[C@H](C)OC(=O)[C@@H](C(C)C)NC(=O)[C@@H](C(C)C)OC(=O)[C@H](C(C)C)NC(=O)[C@H](C)OC(=O)[C@@H](C(C)C)NC(=O)[C@@H](C(C)C)OC1=O [Valinomycin] | 1.89 µM | 5.11 µM | 6.78 µM |  |
| COC(=O)[C@H]1[C@@H](O)[C@@]2(O)c3c(OC)cc(O[C@@H]4O[C@@H]([C@H](O)CO)CO[C@H]4OC)cc3O[C@@]2(c2ccc(OC)cc2)[C@@H]1c1ccccc1 [silvestrol] |  |  |  | EC50 (HCoV-229E): 0.003 µM; EC50 (MERS-CoV [13]): 0.0013 µM |
| Monensin sodium |  |  |  | EC50 [8]: < 5 µM; EC50 (HCoV-OC43-WT [4]): 3.81 µM; EC50 (MERS-CoV [5]): 3.27 µM; EC50 (MHV-A59 [6]): 0.18 µM; EC50 (HCoV-NL63 [7]): 1.54 µM |
